Laboratory results reported in US6197568A (priority 1998, dated 2001).

Tests used:
[1] = target: T1, Recombinant dengue 2 virus envelope protein (Dengue virus type 2, UniProt P27914); experiment: Envelope protein binding assay with competitive antagonists, Vero cells, flow cytometry; format: cell-based
T1 construct: extending from the start codon to the beginning of the transmembrane region (nucleotides 1 to 1272); CD5 signal peptide (N); made in house; host or cells: COS-7 cells (transfected; purified from cell lysate on protein A)
Method: Panels A-D: Competitive antagonists. Recombinant dengue 2 virus envelope protein was co-incubated with Vero cells in the presence of potential competitive antagonists, and the degree of binding was quantitated by flow cytometry. Abscissa: Competitive antagonist. Binding of envelope protein without antagonist is indicated by dengue Env column. Background binding (cells incubated with normal human IgG instead of envelope protein) is indicated by Control IgG column. Ordinate: Median fluorescence intensity derived from flow cytometry histograms for each sample.
Vero cells were detached from their culture surface without proteases (incubated in cation-free phosphate buffered saline (PBS, Gibco-BRL) with 5 mM EDTA, 10 min. 37° C., washed, and incubated with envelope protein (10 μg/ml) and competitive antagonists (10 μg/ml unless otherwise indicated) in cation containing PBS with 1% normal goat serum (Gibco-BRL), for 1 hour at 4° C. Cells were washed two times, incubated with R-phycoerythrin labeled Fab2 fragment of affinity purified goat antibody to human IgG Fc (5 μg/ml, Jackson Labs.) for 1 hour at 4° C., and washed two times. Cellular fluorescence and forward angle light scatter were quantitated by flow cytometry (FACScan, Becton Dickinson). A minimum of 10,000 cells was assessed from each treatment group. Data were accumulated only for viable cells; non-viable cells were excluded from analysis on the basis of low forward angle light scatter. Results were expressed as frequency histograms of fluorescence per cell. A value for median fluorescence intensity was derived from the fluorescence frequency histograms for each sample, and used to compare fluorescence between samples. In each experiment, controls consisted of untreated cells, cells incubated with only the secondary fluorochrome-labeled antibody, and cells incubated with normal human IgG followed by the secondary fluorochrome-labeled antibody.
Chondroitin sulfate (CS) from bovine trachea, dermatan sulfate (DS) from bovine mucosa, heparan sulfate (HS) from bovine kidney, heparin from bovine lung, keratan sulfate (KS) from bovine cornea, and dextran sulfate (DexS) (MW 5×105) were obtained from Sigma Chemical Co. and used at a concentration of 10 μg/ml.

[2] = test system: dengue 2 New Guinea C strain virus; experiment: Infectivity assay, dengue virus infection of Vero cells (cytopathic effect); format: cell-based, dengue 2 virus
[3] = test system: Human umbilical vein endothelial cells
[4] = test system: Vero cells

`Cc1ccc(C(=O)Nc2ccc(S(=O)(=O)O)c3cc(S(=O)(=O)O)cc(S(=O)(=O)O)c23)cc1NC(=O)c1cccc(NC(=O)Nc2cccc(C(=O)Nc3cc(C(=O)Nc4ccc(S(=O)(=O)O)c5cc(S(=O)(=O)O)cc(S(=O)(=O)O)c45)ccc3C)c2)c1` [Suramin] was tested. Which “inhibition of envelope protein binding by polyanionic compounds” value [1] did it give?
The value was “inhibited envelope protein binding”.

And the “effect on infectious titer” value ([2]; Vero cells incubated with compound, washed before exposure to virus)?
The value was “no effect on infectious titer”.

And the “prevention of dengue virus infection of Vero cells” value ([2]; high doses (0-2.5 mg/ml), compound incubated with virus)?
The value was “completely protective at high doses”.

`[Na+].[O-][Cl+2]([O-])[O-]` [sodium chlorate] was tested. Which “envelope protein binding after sulfation inhibition” value [3] did it give?
Its value is “dose dependent partial inhibition of binding”.

And the “envelope protein binding after sulfation inhibition” value [4]?
Its value is “complete loss of binding”.

What does the source list for dextran sulfate [DexS]?
inhibition of envelope protein binding to Vero cells (competitive antagonist) ([1]; antagonist 10 μg/ml): no effect; inhibition of envelope protein binding to Vero cells (competitive antagonist) ([1]; concentrations up to 30 μg/ml): no inhibitory effect

Which “inhibition of envelope protein binding by polyanionic compounds” value [1] does the source give for sulfated lactobionic acid here?
The value was “inhibited envelope protein binding”.
